Test results taken from PubChem BioAssay AID1845198 (Molecular Pharmacology Branch, DTP, NCI, 2023).
Where “and” joins values, the source holds several entries; their conditions need not be identical. Equal values may be shown once.

Test system: 425362-245-T-J1 tumor spheroids, viability % test/control
Test: Anticancer human tumor 425362-245-T-J1 patient-derived melanoma cell line growth inhibition
Settings: spheroids with HUVEC and MSC; for viability, T/C: stronger effect = lower value
Excerpt: Multicellular complex tumor spheroid response to DNA repair inhibitors in combination with DNA-damaging drugs
This study explores the anticancer activities of DNA-damaging drugs and inhibitors of DNA damage repair, both as single agents and in combinations. Complex tumor spheroids comprised of malignant cells, endothelial cells and mesenchymal stem cells served as an in vitro model for human solid tumors. This model system incorporates physiologically relevant features and patient-derived or established malignant cell lines with clinically relevant genetic alterations from many tumor types. Twenty-six patient-derived or established malignant cell lines were evaluated representing sarcoma, melanoma, small cell lung cancer (SCLC), non-small cell lung cancer (NSCLC), as well as bladder, ovarian and pancreatic cancers. The concentration ranges selected for each drug and investigational agent were based upon clinically achievable concentrations if the clinical Cmax of the agent was known.
Compounds. The drugs and compounds olaparib (NSC753686), talazoparib (NSC767125), berzosertib (NSC777718), elimusertib (NSC800525), nedisertib (NSC802822), VX-984 (NSC792969), AZD-1390 (NSC803789), temozolomide (NSC362856), topotecan (NSC609699), trabectedin (NSC813783), staurosporine (NSC755774), and gemcitabine (NSC613327) were obtained from the National Cancer Institute (NCI) Developmental Therapeutics Program Chemical Repository. The FDA-approved anticancer drug set is available from the Developmental Therapeutics Program at https://dtp.cancer.gov/organization/dscb/obtaining/available_plates.htm. […] The stock solutions were prepared in dimethyl sulfoxide (DMSO, Sigma-Aldrich, St. Louis, MO, cat. D2650) at 400-fold the tested concentration and stored at -70 degrees C. Prior to their use, the stock solutions were diluted in fresh medium and the final DMSO concentration in the assay was 0.25% (v/v). All drugs and investigational agents were tested over a range starting from a high concentration at or near the clinical Cmax and decreasing in half-log increments. If the clinical Cmax for an agent had not been determined, the highest concentration tested was 10 microM.
Cell Lines. The patient-derived cancer cell (PDC) lines: 156681-154-R-J1-PDC, 283228-195-R-J1-PDC, 287954-098-R-J1-PDC, 292921-168-R-J2-PDC, 349418-098-R-PDC, 425362-245-T-J1-PDC, 556581-035-R-J1-PDC, and BL0293-F563-PDC were received from the NCI Patient-Derived Models Repository (PDMR, https://pdmr.cancer.gov). The established cell lines HS-SY-2 (RRID:CVCL_8719), MPNST, and SYO-1 (RRID:CVCL_7146) were obtained from the Sloan Kettering Institute. The alveolar soft parts sarcoma cell line ASPS-1 (RRID:CVCL_S738) was established at the NCI and grown from internal seed stocks. The following established cell lines were purchased from the American Type Culture Collection (ATCC, Manassas, VA): G-401 (ATCC, cat. CRL-1441, RRID:CVCL_0270), SW982 (ATCC, cat. HTB-93, RRID:CVCL_1734), VA-ES-BJ (ATCC, cat. CRL-2138, RRID:CVCL_1785), NCI-H719 (ATCC, cat. CRL-5837, RRID:CVCL_1582), NCI-H196 (ATCC, cat. CRL-5823, RRID:CVCL_1509), NCI-H841 (ATCC, cat. CRL-5845, RRID:CVCL_1595), NCI-H1618 (ATCC, cat. CRL-5879, RRID:CVCL_1480), NCI-H1876 (ATCC, cat. CRL-5902, RRID:CVCL_1503), DMS 114 (ATCC, cat. CRL-2066; RRID:CVCL_1174), NCI-H211 (ATCC, cat. CRL-5824; RRID:CVCL_1529), and SW 1271 (ATCC, cat. CRL-2177, RRID:CVCL_1716). The small cell lung cancer cell line COR-L88 was purchased from Sigma-Aldrich (cat. 92031917-1VL, RRID:CVCL_1141). The non-small cell lung cancer cell lines NCI-H226 (RRID:CVCL_1544) and NCI-H322M (RRID:CVCL_1557) were established at the NCI and grown from internal seed stocks. Pooled donor human umbilical vein endothelial cells (HUVEC, Lonza, cat. CC-2519) and human mesenchymal stem cells (hMSC, Lonza, cat. PT-2501) were purchased from Lonza (Walkersville, MD).
Cell Culture. All cells were maintained in an incubator at 37 degrees C and 5% CO2 with 95% humidity. […]

[1] = compound alone, run of 10/25/2019
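Further: spheroids exposed to agents for 7 days.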
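Wherever viability, T/C is given: 100% = DMSO vehicle control viability.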

| Compound | viability, T/C (compound 0.0316 µM) | viability, T/C (compound 0.1 µM) | viability, T/C (compound 0.316 µM) | viability, T/C (compound 1 µM) | viability, T/C (compound 3.16 µM) | viability, T/C (compound 10 µM) | IC50 (curve of compound) | viability, T/C (compound 0.00949 µM) | viability, T/C (compound 0.03 µM) | viability, T/C (compound 0.0949 µM) | viability, T/C (compound 0.3 µM) | IC50 [1] | further results |
| --- | --- | --- | --- | --- | --- | --- | --- | --- | --- | --- | --- | --- | --- |
| CC(C)n1c(=O)n(C)c2cnc3cc(F)c(-c4ccc(OCCCN5CCCCC5)nc4)cc3c21 | 56.5% and 67.4% and 67.2% | 43.4% and 60.3% and 69.2% | 44.1% and 39.9% and 36.1% | 27.5% and 20.1% and 23.2% | 17.4% and 14.7% and 14.3% | 7.66% and 5.49% and 5.26% | 0.0721 µM and 0.175 µM and 0.198 µM |  |  |  |  |  |  |
| CC1COCCN1c1cc(-c2ccnn2C)c2ccnc(-c3ccn[nH]3)c2n1 (stereo not given) | 34.4% and 43.6% and 45.5% | 13.7% and 12.7% and 17.3% | 7.51% and 9.92% and 13.6% | 6.44% and 8.46% and 7.34% | 6.81% and 10.8% and 7.05% | 8.79% and 9.71% and 7.27% | < 0.0316 µM |  |  |  |  |  |  |
| CC[C@@]1(O)C(=O)OCc2c1cc1n(c2=O)Cc2cc3c(CN(C)C)c(O)ccc3nc2-1 |  |  |  |  |  |  |  | 89.3% [middle of 10 runs] | 38.3% [middle of 10 runs] | 6.41% [middle of 10 runs] | 1.78% [middle of 10 runs] | 23.4 nM [middle of 4 runs] | IC50 (compound alone, run of 10/17/2019): 21.5 nM [middle of 5 runs] |
| CNCc1ccc(-c2cc(-c3nc(-c4ccc(S(=O)(=O)C(C)C)cc4)cnc3N)on2)cc1 |  |  |  |  |  |  | 0.084 µM and 0.0795 µM and 0.151 µM | 93.8% and 103% and 111% | 103% and 83.1% and 105% | 44.3% and 46.4% and 79.6% | 8.53% and 6.26% and 5.89% |  | viability, T/C (compound 0.949 µM): 3.67% and 5.06% and 2.41%; viability, T/C (compound 3 µM): 0.18% and 0.4% and 0.23% |
| COc1cc(C)[nH]c(=O)c1CN1CCc2c(Cl)cc(C(OC)C3COC3)c(Cl)c2C1=O (stereo not given) | 107% and 103% and 97% | 103% (2×) and 108% | 106% and 97.8% and 99.9% | 95.9% and 103% and 98.4% | 97.4% and 104% and 96.1% | 89.9% and 92.6% and 88.8% | > 10 µM |  |  |  |  |  |  |
| COc1cc2c(cc1O)CCNC21CSC2c3c(OC(C)=O)c(C)c4c(c3C(COC1=O)N1C(O)C3Cc5cc(C)c(OC)c(O)c5C(C21)N3C)OCO4 (stereo not given) |  |  |  |  |  |  |  |  |  |  |  | 0.243 nM [middle of 9 runs] | viability, T/C (compound 30 pM): 98% [middle of 10 runs]; viability, T/C (compound 94.9 pM): 95.6% [middle of 10 runs]; viability, T/C (compound 0.0003 µM): 40.8% [middle of 10 runs]; viability, T/C (compound 0.000949 µM): 0.32% [middle of 9 runs]; viability, T/C (compound 0.003 µM): 0.21% [middle of 9 runs] |
